Test results: publication PMC12652692, “Synthesis and In Vitro Anticancer Evaluation of Novel Phosphonium Derivatives of Chrysin” (International Journal of Molecular Sciences, 2025)

Assays:
Assay in all cases: NCI60 one-dose screen
Format in all cases: cell-based
[1] = test system: A498; details: Homo sapiens; A498, 10 μM; read-out: Growth percent
Protocol: (§1) The screening results are presented in the Supplementary Materials (Table S1), where the cytotoxicity was determined for the 10 µM concentration. […] The negative numbers indicate significant decreases in the cell number. […] Compared to the reference chrysin (2), all phosphonium hybrids (3a–h) had significant antiproliferative activities. […] At the same time, it should be noted that more than 60% average reduction was also obtained in the case of the other examined conjugates (3a–h).
(§2) A detailed description of the NCI screening procedures, including the one-dose and five-dose tests, can be found in the Supplementary Materials, on the website of NCI [39], and in our previous work.
(§3) A detailed description of the NCI screening procedures can also be found on the website of NCI [39], and in our […]
(§4) All candidates were examined at first at a single high dose (10 μM) in the full NCI60 cell panel. The value reported for the one-dose test is growth relative to the no-drug control and relative to the time zero number of cells. This made possible the disclosure of both growth inhibition (numbers between 0 and 100) and lethality (numbers less than 0). For example, a value of 100 means no growth inhibition. A value of 20 would mean 80% growth inhibition. A value of 0 means no net growth over the course of the analysis. A value of −20 would mean 20% lethality. A value of −100 means all cells are dead. […]
(§5) concentration levels. The human tumor cell lines of the cancer screening panel were grown in RPMI 1640 medium containing 5% fetal bovine serum and 2 mM l-glutamine. Characteristically, cells were injected in 96-well microtiter plates in 0.1 mL at plating densities ranging from 5000 to 40,000 cells/well, depending on the doubling time of individual cell lines. After cell inoculation, the microtiter plates were incubated at 37 °C, 5% carbon dioxide, 95% air, and 100% relative humidity for 24 hours before the addition of tested compounds. After 24 hours, 2 plates of each cell line were fixed in situ with Cl3COOH (TCA), to represent a measurement of the cell population for each cell line at the time of drug addition (tz). Tested compounds were solubilized in DMSO at 400-fold the desired final maximum test concentration and stored frozen before application. In the course of the drug addition, an aliquot of frozen concentrate was thawed and diluted to twice the desired final maximum test concentration with a complete medium containing 50 μg mL−1 gentamicin. Additional four, 10-fold or ½ log serial dilutions were produced to furnish a total of five drug concentrations plus control. Aliquots of 0.1 mL of these different drug dilutions were added to the appropriate microtiter wells already containing 0.1 mL of medium, resulting in the required final drug concentrations.
(§6) Following drug addition, the plates were incubated at 37 °C, 5% carbon dioxide, 95% air, and 100% relative humidity for an additional 48 hours. For adherent cells, the test was finished by the addition of cold Cl3COOH. Cells were fixed in situ by the addition of 50 μL of cold 50% (w/v) Cl3COOH, and incubated at 4 °C for 1 hour. The supernatant was discarded, and the plates were washed with H2O (5×) and dried in air. Sulforhodamine B (SRB) solution (0.1 mL) at 0.4% (w/v) in 1% CH3COOH was added to each well, and plates were incubated at RT for 10 min. After staining, the unbound dye was removed by washing five times with 1% CH3COOH, and the plates were dried in the air. The bound stain is afterward solubilized with a 10 mM trizma base, and the absorbance is read on an automated plate reader at λ = 515 nm. Utilizing the seven absorbance measurements [time zero (tz), control growth (c), and test growth in the presence of the drug at the five concentration levels (ti)], the percentage growth was determined at each of the drug concentration levels. Growth inhibition (%) was calculated as:
(§7) [(ti − tz)/(c − tz)] × 100, for concentrations where ti ≥ tz (1) […]

[2] = test system: CAKI-1; details: Homo sapiens; CAKI-1, 10 μM; read-out: Growth percent
Protocol: as §1, §2, §3, §4, §5, §6, §7

[3] = test system: EKVX; details: Homo sapiens, read-out: Growth percent
Protocol: as §1, §2, §3, §4, §5, §6, §7

[4] = test system: HCT-116; details: Homo sapiens; HCT-116, 10 μM; read-out: Growth percent
Protocol: as §1, §2, §3, §4, §5, §6, §7

[5] = test system: HL-60(TB); details: Homo sapiens, read-out: Growth percent
Protocol: as §1, §2, §3, §4, §5, §6, §7

[6] = test system: IGROV1; details: Homo sapiens, IGROV-1; IGROV1, 10 μM; read-out: Growth percent
Protocol: as §1, §2, §3, §4, §5, §6, §7

[7] = test system: LOX IMVI; details: Homo sapiens, read-out: Growth percent
Protocol: as §1, §2, §3, §4, §5, §6, §7

[8] = test system: MCF7; details: Homo sapiens; MCF7, 10 μM; read-out: Growth percent
Protocol: as §1, §2, §3, §4, §5, §6, §7

[9] = test system: MDA-MB-231/ATCC; details: Homo sapiens, read-out: Growth percent
Protocol: as §1, §2, §3, §4, §5, §6, §7

[10] = test system: MOLT-4; details: Homo sapiens; MOLT-4, 10 μM; read-out: Growth percent
Protocol: as §1, §2, §3, §4, §5, §6, §7

[11] = test system: NCI-H23; details: Homo sapiens; NCI-H23, 10 μM; read-out: Growth percent
Protocol: as §1, §2, §3, §4, §5, §6, §7

[12] = test system: NCI-H322M; details: Homo sapiens, read-out: Growth percent
Protocol: as §1, §2, §3, §4, §5, §6, §7

[13] = test system: NCI-H522; details: Homo sapiens; NCI-H522, 10 μM; read-out: Growth percent
Protocol: as §1, §2, §3, §4, §5, §6, §7

[14] = test system: OVCAR-3; details: Homo sapiens; OVCAR-3, 10 μM; read-out: Growth percent
Protocol: as §1, §2, §3, §4, §5, §6, §7

[15] = test system: OVCAR-8; details: Homo sapiens; OVCAR-8, 10 μM; read-out: Growth percent
Protocol: as §1, §2, §3, §4, §5, §6, §7

[16] = test system: SF-268; details: Homo sapiens; SF-268, 10 μM; read-out: Growth percent
Protocol: as §1, §2, §3, §4, §5, §6, §7

[17] = test system: SF-539; details: Homo sapiens; SF-539, 10 μM; read-out: Growth percent
Protocol: as §1, §2, §3, §4, §5, §6, §7

[18] = test system: SK-MEL-28; details: Homo sapiens; SK-MEL-28, 10 μM; read-out: Growth percent
Protocol: as §1, §2, §3, §4, §5, §6, §7

[19] = test system: SN12C; details: Homo sapiens, read-out: Growth percent
Protocol: as §1, §2, §3, §4, §5, §6, §7

[20] = test system: SNB-19; details: Homo sapiens; SNB-19, 10 μM; read-out: Growth percent
Protocol: as §1, §2, §3, §4, §5, §6, §7

[21] = test system: UO-31; details: Homo sapiens; UO-31, 10 μM; read-out: Growth percent
Protocol: as §1, §2, §3, §4, §5, §6, §7

Row | Structure (SMILES) | activity at 10 µM [1] [%] | activity at 10 µM [2] [%] | activity at 10 µM [3] [%] | activity at 10 µM [4] [%] | activity at 10 µM [5] [%] | activity at 10 µM [6] [%] | activity at 10 µM [7] [%] | activity at 10 µM [8] [%] | activity at 10 µM [9] [%] | activity at 10 µM [10] [%] | activity at 10 µM [11] [%] | activity at 10 µM [12] [%] | activity at 10 µM [13] [%] | activity at 10 µM [14] [%] | activity at 10 µM [15] [%] | activity at 10 µM [16] [%] | activity at 10 µM [17] [%] | activity at 10 µM [18] [%] | activity at 10 µM [19] [%] | activity at 10 µM [20] [%] | also measured
1 | O=c1cc(-c2ccccc2)oc2cc(OCCCC[P+](c3ccccc3)(c3ccccc3)c3ccccc3)cc(O)c12 [3a] | -83.3 | -97.1 | -97.6 | -58.1 | -51.5 | -75.7 | -90.1 | -79.1 | -32.2 | -41.7 | -93 | -100 | -81.9 | -94 | -61.1 | -59 | -95.7 | -98.5 | -49.5 | -44.5 | activity at 10 µM [21]: -97.1%
2 | Cc1ccc([P+](CCCCOc2cc(O)c3c(=O)cc(-c4ccccc4)oc3c2)(c2ccc(C)cc2)c2ccc(C)cc2)cc1 [3b] | -81.5 | -90.4 | -88.3 | 1.29 | -60.4 | -46.9 | -91.2 | -74.8 | -90.7 | -43.4 | -90.9 | -79.5 | -74.4 | -88.2 | -30.1 | -61.3 | -80.5 | -85.3 | -84.4 | -96.1 | activity at 10 µM [21]: -82.5%
3 | COc1ccc([P+](CCCCOc2cc(O)c3c(=O)cc(-c4ccccc4)oc3c2)(c2ccc(OC)cc2)c2ccc(OC)cc2)cc1 [3c] | -83 | -75.5 | -70.9 | -95.5 | -31.2 | -6.99 | -78.8 | -56.8 | -72.1 | -51.6 | -77 | -45.1 | -84.9 | -68.1 | -90.6 | -38.3 | -66.9 | -44.5 | -59 | -78.9 | activity at 10 µM [21]: -89.9%
